Results as given in publication PMC6017236, “Activation Profile Analysis of CruCA4, an α-Carbonic Anhydrase Involved in Skeleton Formation of the Mediterranean Red Coral, Corallium rubrum” (Molecules : A Journal of Synthetic Chemistry and Natural …, 2017).

molecular target: T1, CruCA4 (Corallium rubrum, UniProt A0A1B0Y987); experiment: stopped-flow CO2 hydrase activation assay; type: biochemical; settings: activation constant (activator); CO2 1.7-17 mM substrate, pH 7.5, 25 °C, 15 min pre-incubation
T1 construct: gene CA4
T1 sequence (A0A1B0Y987 entry or part of it): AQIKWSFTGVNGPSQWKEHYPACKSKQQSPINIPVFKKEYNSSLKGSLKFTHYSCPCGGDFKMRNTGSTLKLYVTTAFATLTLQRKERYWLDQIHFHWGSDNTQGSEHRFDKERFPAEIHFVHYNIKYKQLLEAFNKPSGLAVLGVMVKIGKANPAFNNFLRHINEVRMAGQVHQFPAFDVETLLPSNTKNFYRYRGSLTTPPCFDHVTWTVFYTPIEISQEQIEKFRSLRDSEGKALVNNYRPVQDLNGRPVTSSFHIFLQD
From the text: stopped-flow CO2 hydrase activation assay on CruCA4

Row | SMILES | KA (μM) * / CruCA4 ^b
1 | Nc1ccc(C[C@H](N)C(=O)O)cc1 [compound 11, 4-H2N-L-Phe] | 0.074 µM
2 | N[C@@H](Cc1cnc[nH]1)C(=O)O [compound 1, L-His] | 36.9 µM
3 | N[C@H](Cc1ccccc1)C(=O)O [compound 4, D-Phe] | 1.01 µM
4 | N[C@H](Cc1ccc(O)c(O)c1)C(=O)O [compound 6, D-DOPA] | 0.93 µM
5 | NCCN1CCOCC1 [compound 18, 4-(2-Aminoethyl)-morpholine] | 0.15 µM
6 | N[C@H](Cc1c[nH]c2ccccc12)C(=O)O [compound 8, D-Trp] | 8.35 µM
7 | N[C@@H](Cc1c[nH]c2ccccc12)C(=O)O [compound 7, L-Trp] | 9.48 µM
8 | N[C@H](Cc1c[nH]cn1)C(=O)O [compound 2, D-His] | 0.098 µM
9 | NCc1ccccn1 [compound 15, 2-Pyridyl-methylamine] | 0.41 µM
10 | N[C@@H](Cc1ccc(O)c(O)c1)C(=O)O [compound 5, L-DOPA] | 13.7 µM
11 | NCCN1CCNCC1 [compound 17, 1-(2-Aminoethyl)-piperazine] | 0.004 µM
